These results are taken from PubChem BioAssay AID1259407 (Chemical Carcinogenesis Research Information System (CCRIS), 2018).

Molecules are shown by their SMILES. Activity calls are given as the source filed them. The rule behind the calls is not given here.

The data set relates to CCRIS mutagenicity, Ames/micronucleus/aberration tests. In words: CCRIS mutagenicity studies.
Setting [1] is: Test System: AMES SALMONELLA TYPHIMURIUM, Strain/Indicator: TA98, Metabolic Activation: NONE, Method: PREINCUBATION
[2] abbreviates: Test System: AMES SALMONELLA TYPHIMURIUM, Strain/Indicator: TA100, Metabolic Activation: NONE, Method: PREINCUBATION
Setting [3] is: Test System: AMES SALMONELLA TYPHIMURIUM, Strain/Indicator: TA98, Metabolic Activation: NONE, Method: STANDARD PLATE.
[4] abbreviates: Test System: AMES SALMONELLA TYPHIMURIUM, Strain/Indicator: TA100, Metabolic Activation: NONE, Method: STANDARD PLATE.
The mark [5] stands for this setting: Test System: AMES SALMONELLA TYPHIMURIUM, Strain/Indicator: TA102, Metabolic Activation: NONE, Method: STANDARD PLATE.

For the compound `O=[N+]([O-])c1ccc(S(=O)(=O)O)cc1`, the mutagenic call under setting [1] was “inactive; negative”; the mutagenic call (Test System: AMES SALMONELLA TYPHIMURIUM, Strain/Indicator: TA98, Metabolic Activation: RAT, LIVER, S-9, KANECHLOR 500, Method: PREINCUBATION) was “inactive; negative”; the mutagenic call under setting [2] was “inactive; negative”; the mutagenic call (Test System: AMES SALMONELLA TYPHIMURIUM, Strain/Indicator: TA100, Metabolic Activation: RAT, LIVER, S-9, KANECHLOR 500, Method: PREINCUBATION) is “inactive; negative”.
For `CN(C)CCNC(=O)c1cccc2oc(-c3ccccc3)nc12`, for the setting “Test System: AMES SALMONELLA TYPHIMURIUM, Strain/Indicator: TA1537, Metabolic Activation: NONE, Method: STANDARD PLATE”, the mutagenic call was “inactive; negative”.
For the compound `CCCCCCCCCCCCN(C)N=O`, for the setting “Test System: AMES SALMONELLA TYPHIMURIUM, Strain/Indicator: TA100, Metabolic Activation: RAT, LIVER, S-9, KC500 OR PHENOBARBITAL, Method: LIQUID SUSPENSION”, the mutagenic call is “active; positive”.
For the compound `CON`, the mutagenic call is, setting by setting: (Test System: AMES SALMONELLA TYPHIMURIUM, Strain/Indicator: TA98, Metabolic Activation: HAMSTER, LIVER, S-9, AROCLOR 1254 (10%), Method: PREINCUBATION) “inactive; negative”; under setting [1], “inactive; negative”; (Test System: AMES SALMONELLA TYPHIMURIUM, Strain/Indicator: TA98, Metabolic Activation: RAT, LIVER, S-9, AROCLOR 1254 (10%), Method: PREINCUBATION) “inactive; negative”; (Test System: AMES SALMONELLA TYPHIMURIUM, Strain/Indicator: TA100, Metabolic Activation: HAMSTER, LIVER, S-9, AROCLOR 1254 (10%), Method: PREINCUBATION) “inactive; negative”; under setting [2], “inactive; negative”; (Test System: AMES SALMONELLA TYPHIMURIUM, Strain/Indicator: TA100, Metabolic Activation: RAT, LIVER, S-9, AROCLOR 1254 (10%), Method: PREINCUBATION) “inactive; negative”. For the same compound, the mutagenic call was “inactive; negative” (Test System: AMES SALMONELLA TYPHIMURIUM, Strain/Indicator: TA1535, Metabolic Activation: HAMSTER, LIVER, S-9, AROCLOR 1254 (10%), Method: PREINCUBATION); “inactive; negative” (Test System: AMES SALMONELLA TYPHIMURIUM, Strain/Indicator: TA1535, Metabolic Activation: NONE, Method: PREINCUBATION); “inactive; negative” (Test System: AMES SALMONELLA TYPHIMURIUM, Strain/Indicator: TA1535, Metabolic Activation: RAT, LIVER, S-9, AROCLOR 1254 (10%), Method: PREINCUBATION); “inactive; negative” (Test System: AMES SALMONELLA TYPHIMURIUM, Strain/Indicator: TA1537, Metabolic Activation: HAMSTER, LIVER, S-9, AROCLOR 1254 (10%), Method: PREINCUBATION); “inactive; negative” (Test System: AMES SALMONELLA TYPHIMURIUM, Strain/Indicator: TA1537, Metabolic Activation: NONE, Method: PREINCUBATION); “inactive; negative” (Test System: AMES SALMONELLA TYPHIMURIUM, Strain/Indicator: TA1537, Metabolic Activation: RAT, LIVER, S-9, AROCLOR 1254 (10%), Method: PREINCUBATION).
With `Cc1ccc(C)c(C)c1C`, the mutagenic call runs as follows: (Test System: AMES SALMONELLA TYPHIMURIUM, Strain/Indicator: TA97A, Metabolic Activation: NONE, Method: STANDARD PLATE) “inactive; negative”; (Test System: AMES SALMONELLA TYPHIMURIUM, Strain/Indicator: TA97A, Metabolic Activation: RAT LIVER S-9, AROCLOR 1254, Method: STANDARD PLATE) “inactive; negative”; under setting [3], “inactive; negative”; (Test System: AMES SALMONELLA TYPHIMURIUM, Strain/Indicator: TA98, Metabolic Activation: RAT LIVER S-9, AROCLOR 1254, Method: STANDARD PLATE) “inactive; negative”; under setting [4], “inactive; negative”; (Test System: AMES SALMONELLA TYPHIMURIUM, Strain/Indicator: TA100, Metabolic Activation: RAT LIVER S-9, AROCLOR 1254, Method: STANDARD PLATE) “inactive; negative”. In addition, the mutagenic call under setting [5] was “inactive; negative” and the mutagenic call (Test System: AMES SALMONELLA TYPHIMURIUM, Strain/Indicator: TA102, Metabolic Activation: RAT LIVER S-9, AROCLOR 1254, Method: STANDARD PLATE) was “inactive; negative”.
`Cc1ccc(C)c(NO)c1`: the mutagenic call under setting [2] was “active; positive” and the mutagenic call (Test System: AMES SALMONELLA TYPHIMURIUM, Strain/Indicator: TA100, Metabolic Activation: RAT, LIVER, S-9, PCB, Method: PREINCUBATION) was “active; positive”.
For `CNC(=O)C(C)SCCSP(=O)(OC)OC` (stereo not given), the mutagenic call by setting is: (Test System: E. COLI, Strain/Indicator: WP2, Metabolic Activation: NONE, Method: STANDARD PLATE) “active; positive”; (Test System: E. COLI, Strain/Indicator: WP2 UVRA, Metabolic Activation: NONE, Method: STANDARD PLATE) “active; positive”.
In the case of `c1cnc2c(c1)ccc1c2ccc2cccnc21`, the mutagenic call (Test System: AMES SALMONELLA TYPHIMURIUM, Strain/Indicator: TA100, Metabolic Activation: POOLED HUMAN LIVER MICROSOMES, Method: PREINCUBATION) was “active; positive”; the mutagenic call (Test System: AMES SALMONELLA TYPHIMURIUM, Strain/Indicator: TA100, Metabolic Activation: RAT, LIVER, S-9, PHENOBARBITAL AND 5,6-BENZOFLAVONE, Method: PREINCUBATION) was “active; positive”; the mutagenic call (Test System: Ames Salmonella typhimurium, Strain/Indicator: TA100, Metabolic Activation: Rat, Liver, S-9) was “active; positive”; the mutagenic call (Test System: LACZ TRANSGENIC MOUSE (MUTATM MOUSE), Strain/Indicator: LACZ MUTANT FREQUENCY, Method: LIVER, SPLEEN, LUNG, KIDNEY, BONE MARROW, COLON HARVESTED 7 D AFTER LAST DOSE, DNA ISOLATED) was “active; positive; g:c to t:a transversions in all organs”.
`c1ccc2c(OC[C@H]3CO3)cccc2c1`: under setting [4], the mutagenic call was “active; positive”.
Turning to `CC1(C)[C@H](/C=C(\Cl)C(F)(F)F)[C@@H]1C(=O)O[C@@H](C#N)c1cccc(Oc2ccccc2)c1`, the mutagenic call is, setting by setting: (End Point: IN VIVO CHROMOSOMAL ABERRATIONS, Test System: BONE MARROW, Species: RAT, Strain/Sex: WISTAR/FEMALE, Route: IP) “active; positive (structural changes)”; (End Point: IN VIVO MICRONUCLEUS, Test System: BONE MARROW POLYCHROMATIC ERYTHROCYTES, Species: RAT, Strain/Sex: WISTAR/FEMALE, Route: ORAL (GAVAGE)) “active; positive”; (End Point: IN VIVO MICRONUCLEUS, Test System: BONE MARROW, Species: RAT, Strain/Sex: WISTAR/FEMALE, Route: IP) “active; positive”; (End Point: IN VIVO MICRONUCLEUS, Test System: POLYCHROMATIC ERYTHROCYTES FROM COLONIC CRYPT EPITHELIAL CELLS, Species: RAT, Strain/Sex: WISTAR/FEMALE, Route: ORAL (GAVAGE)) “active; positive”.
Regarding `CC1(C)CC(C(=O)O)C(C)(C)N1[O]` (stereo not given), the mutagenic call runs as follows: under setting [3], “inactive; negative”; under setting [4], “inactive; negative”; under setting [5], “inactive; negative”; (Test System: AMES SALMONELLA TYPHIMURIUM, Strain/Indicator: TA102, Metabolic Activation: XANTHINE OXIDASE, Method: STANDARD PLATE) “inactive; negative”; (Test System: AMES SALMONELLA TYPHIMURIUM, Strain/Indicator: TA104, Metabolic Activation: NONE, Method: STANDARD PLATE) “inactive; negative”; (Test System: AMES SALMONELLA TYPHIMURIUM, Strain/Indicator: TA104, Metabolic Activation: XANTHINE OXIDASE, Method: STANDARD PLATE) “inactive; negative”.
